Test results taken from patent US20210213104A1, “GLUCAGON AND GLP-1 CO-AGONISTS FOR THE TREATMENT OF CHRONIC KIDNEY DISEASE AND DIABETIC KIDNEY DISEASE IN TYPE 2 DIABETES” (MEDIMMUNE LIMITED, priority 2020, published 2021).
Marks after values point to notes of the source that are not given here.

System: subjects with T2DM and renal impairment
Assay: Phase 2a: continuous glucose monitoring (CGM)
Type: in vivo, human
Settings: for Percentage of Time CGM Glucose Within Target Range (70-180 mg/dL), Mean / Percentage of Time CGM Glucose Within Target Range (70-180 mg/dL), Median / Time in target range, Change from Baseline (Days −8 to −2), Mean / Time in target range, Change from Baseline (Days −8 to −2), Median / Time in target range, Difference in LS Mean Change (vs Placebo): 300 μg Dose (Days 26 to 32); for Percentage of Time CGM Glucose Within Target Range (70-180 mg/dL), Mean / Percentage of Time CGM Glucose Within Target Range (70-180 mg/dL), Median / Time in target range, Change from Baseline (Days −8 to −2), Mean / Time in target range, Change from Baseline (Days −8 to −2), Median / Time in target range, Difference in LS Mean Change (vs Placebo) / Percentage of time spent in CGM glucose range 70-180 mg/dL during treatment / Percentage of time spent in CGM glucose range >180 mg/dL during treatment: ITT; for Percentage of time spent in CGM glucose range 70-180 mg/dL during treatment / Percentage of time spent in CGM glucose range >180 mg/dL during treatment: entire dosing period
Method: Cotadutide was titrated from 50 μg up to 300 μg and administered once daily by subcutaneous (SC) injection over 32 days.
Cotadutide was administered at 50 μg once daily for 4 days, followed by 100 μg daily for 7 days, 200 μg daily for 7 days, and 300 μg daily for 14 days (n=20). Placebo was administered one daily for 32 days (n=20). Cotadutide and placebo were administered in the morning. Dosing commenced following predose baseline vital signs, blood tests (including HbA1c), an electrocardiogram (ECG), body weight measurement, and bioimpedance spectroscopy (BIS). Subjects then returned for daily dosing or remained overnight locally until Day 5, and thereafter, had visits at weekly intervals until a maintenance dose of 300 μg was established. Thus, Cotadutide or placebo was administered at the study site by study personal for the first four doses and on site on Days 5, 12, 19, and 32. At all other times, subjects preformed dosing at home.
A Freestyle Libre® Pro CGM device was used to measure interstitial glucose levels. […] Data generated by CGM was used at visits to adjust insulin doses and other treatments.
The CGM sensor, which is a small plastic circular device of 35 mm diameter and 5 mm depth, was applied to the back of the upper arm. Subjects wore the CGM sensor continuously up until the time of a sensor change, which was to occur within 14 days, and they were advised that they could bathe and shower, and swim in up to 3 m depth for up to 30 minutes while wearing the CGM sensor. When the CGM sensor was removed, a new CGM sensor could be reapplied, ideally close to the original site, but with the subject's site preference taken into account. CGM sensors were single-use only.
If a subject was unable to tolerate wearing the CGM sensor for the entire duration of the study, the sensor was removed; but the subject was to remain in the study with or without continued CGM and could instead be instructed to monitor capillary plasma glucose measurements four times per day (before meals and before bedtime) and record these levels in the diary provided.
Subjects underwent continuous glucose monitoring (CGM) starting from Day −14 to Day 40 (±5 days), with sensor changes within 14-day intervals. CGM readings were used to analyze change in average CGM glucose and glucose AUC7 d, coefficient of variation as a marker of glycemic variability, and time spent in target glucose range and hypoglycemia, to enable comparison across different dose levels.

SMILES: CCCCCCCCCCCCCCCC(=O)N[C@@H](CCC(=O)NCCCC[C@H](NC(=O)[C@H](CC(=O)O)NC(=O)[C@H](CO)NC(=O)[C@@H](NC(=O)[C@H](Cc1ccccc1)NC(=O)[C@@H](NC(=O)CNC(=O)[C@H](CCC(N)=O)NC(=O)[C@H](CO)NC(=O)[C@@H](N)Cc1c[nH]cn1)[C@@H](C)O)[C@@H](C)O)C(=O)N[C@@H](CO)C(=O)N[C@@H](CCC(=O)O)C(=O)N[C@@H](Cc1ccc(O)cc1)C(=O)N[C@@H](CC(C)C)C(=O)N[C@@H](CC(=O)O)C(=O)N[C@@H](CO)C(=O)N[C@@H](CCC(=O)O)C(=O)N[C@@H](CCCNC(=N)N)C(=O)N[C@@H](C)C(=O)N[C@@H](CCCNC(=N)N)C(=O)N[C@@H](CC(=O)O)C(=O)N[C@@H](Cc1ccccc1)C(=O)N[C@H](C(=O)N[C@@H](C)C(=O)N[C@@H](Cc1c[nH]c2ccccc12)C(=O)N[C@@H](CC(C)C)C(=O)N[C@@H](CCC(=O)O)C(=O)N[C@@H](C)C(=O)NCC(=O)NCC(=O)O)C(C)C)C(=O)O [Cotadutide]
- Percentage of Time CGM Glucose Within Target Range (70-180 mg/dL), Mean (Insulin Dose < 20 U/day): 89.31%
- Percentage of Time CGM Glucose Within Target Range (70-180 mg/dL), Median (Insulin Dose < 20 U/day): 95.35%
- Time in target range, Change from Baseline (Days −8 to −2), Mean (Insulin Dose < 20 U/day): 25.61%
- Time in target range, Change from Baseline (Days −8 to −2), Median (Insulin Dose < 20 U/day): 23.18%
- Time in target range, Difference in LS Mean Change (vs Placebo) (Insulin Dose < 20 U/day): 56.7%
- Time in target range, Difference in LS Mean Change (vs Placebo) (Insulin Dose < 20 U/day, listed as MEDI0382): 56.73%
- Percentage of Time CGM Glucose Within Target Range (70-180 mg/dL), Mean (Insulin Dose ≥ 20 U/day): 71.69%
- Percentage of Time CGM Glucose Within Target Range (70-180 mg/dL), Median (Insulin Dose ≥ 20 U/day): 83.04%
- Time in target range, Change from Baseline (Days −8 to −2), Mean (Insulin Dose ≥ 20 U/day): 8.44%
- Time in target range, Change from Baseline (Days −8 to −2), Median (Insulin Dose ≥ 20 U/day): 13.31%
- Time in target range, Difference in LS Mean Change (vs Placebo) (Insulin Dose ≥ 20 U/day): 19.6%
- Time in target range, Difference in LS Mean Change (vs Placebo) (Insulin Dose ≥ 20 U/day, listed as MEDI0382): 19.59%
- Percentage of Time CGM Glucose Within Target Range (70-180 mg/dL), Mean (Total): 78.18%
- Percentage of Time CGM Glucose Within Target Range (70-180 mg/dL), Median (Total): 83.51%
- Time in target range, Change from Baseline (Days −8 to −2), Mean (Total): 14.50%
- Time in target range, Change from Baseline (Days −8 to −2), Median (Total): 18.31%
- Time in target range, Difference in LS Mean Change (vs Placebo) (Total): 36.02%
- Time in target range, difference in LS mean change as compared to placebo (300 μg [Days 19 to 25], all subjects): 35.23%
- mean CGM glucose value (at the 50 μg dose): 133.7 mg/dL
- mean CGM glucose value (at the 100 μg dose): 127.6 mg/dL
- mean CGM glucose value (at the 200 μg dose): 131.7 mg/dL
- mean CGM glucose value (at the 300 μg dose (Days 26 to 32)): 125.4 mg/dL
- Total glucose over each dosing period (AUC7 d) from baseline (Days −8 to −2) as compared to placebo (based on LS mean change): significantly decreased
- LS mean change in coefficient of variation of glucose vs placebo (baseline to the end of each 7-day dosing period): no statistically significant difference
- Percentage of time spent in CGM glucose range 70-180 mg/dL during treatment (Insulin Dose < 20 U/day): 89.85* %
- Percentage of time spent in CGM glucose range >180 mg/dL during treatment (Insulin Dose < 20 U/day): 3.31%
- Percentage of time spent in CGM glucose range 70-180 mg/dL during treatment (Insulin Dose ≥ 20 U/day): 73.09* %
- Percentage of time spent in CGM glucose range >180 mg/dL during treatment (Insulin Dose ≥ 20 U/day): 14.09* %
- Percentage of time spent in CGM glucose range 70-180 mg/dL during treatment (Total): 78.67%
- Percentage of time spent in CGM glucose range >180 mg/dL during treatment (Total): 10.50%
- Percentage of time spent in CGM glucose range 70-180 mg/dL during treatment (Total, listed as MEDI0382): 78.67* %
- Percentage of time spent in CGM glucose range >180 mg/dL during treatment (Total, listed as MEDI0382): 10.50* %
- percentage of time spent below 54 mg/dL vs Placebo (in vivo): statistically significant greater percentage of time
- percentage of time spent below 54 mg/dL vs placebo (in vivo): no clinically significant difference vs placebo
- time spent in hypoglycemia (<70 mg/dL) vs placebo, 7-day periods (in vivo): no statistically significant differences
- Average glucose levels from baseline to the end of each 7-day dosing period compared to placebo (p ≤0.003, based on LS mean change): significant reductions
